Measured values reported in patent EP4596548A1, “NURR1 MODULATORS” (Ludwig-Maximilians-Universität, priority 2024, dated 2025).
Several values for one entry are separate records, joined by “and”; a condition that tells them apart may be missing. Identical values can stand only once. Entries after “also recorded” stand apart in the source; their conditions may differ. Like-named read-outs stand apart in the source and are kept apart here.

Assays:
[1] = molecular target: Nurr1 (Homo sapiens, UniProt P43354); test: Gal4-Nurr1 hybrid reporter gene assay in HEK293T cells; assay type: cell-based; design: expressed in transfected cells; host or cells: HEK293T; conditions: for max. activation: maximum effect vs. 0.1% DMSO control; for max. activation / EC50: mean±SD, n≥3; for EC50: Gal4-Nurr1 hybrid reporter gene assay
Chain of Nurr1 (P43354 360-595 limits assumed): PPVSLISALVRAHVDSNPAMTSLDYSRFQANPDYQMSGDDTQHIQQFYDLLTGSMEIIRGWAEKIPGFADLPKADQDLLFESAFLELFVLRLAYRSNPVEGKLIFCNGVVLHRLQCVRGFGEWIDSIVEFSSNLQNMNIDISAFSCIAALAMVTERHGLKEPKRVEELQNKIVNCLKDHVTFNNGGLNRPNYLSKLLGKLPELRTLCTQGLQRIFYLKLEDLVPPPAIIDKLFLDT
Procedure: (§1) Hybrid reporter gene assays. Nurr1 modulation was determined in a Gal4 hybrid reporter gene assay in HEK293T cells (German Collection of Microorganisms and Cell Culture GmbH, DSMZ) using pFR-Luc (Stratagene, La Jolla, CA, USA; reporter), pRL-SV40 (Promega, Madison, WI, USA; internal control) and pFA-CMV-hNurr1-LBD^14, coding for the hinge region and ligand binding domain of the canonical isoform of human Nurr1. […] After 24 h, medium was changed to Opti-MEM without supplements and cells were transiently transfected using Lipofectamine LTX reagent (Invitrogen, Carlsbad, CA, USA) according to the manufacturer's protocol. Five hours after transfection, cells were incubated with the test compounds in Opti-MEM supplemented with penicillin (100 U/mL), streptomycin (100 µg/mL) and 0.1% DMSO for 16 h before luciferase activity was measured using the Dual-Glo Luciferase Assay System (Promega) according to the manufacturer's protocol on a Tecan Spark luminometer (Tecan Deutschland GmbH, Crailsheim, Germany). Firefly luminescence was divided by Renilla luminescence and multiplied by 1000 resulting in relative light units (RLU) to normalize for transfection efficiency and cell growth. Fold activation was obtained by dividing the mean RLU of test compound by the mean RLU of the untreated control. All samples were tested in at least three biologically independent experiments in duplicates. For dose-response curve fitting and calculation of EC50 values, the equation "[Agonist] vs. response -- Variable slope (four parameters)" was used in GraphPad Prism (version 7.00, GraphPad Software, La Jolla, CA, USA). Selectivity profiling was performed with identical procedures using pFA-CMV-Nur77-LBD^14, pFA-CMV-NOR-1-LBD^14, pFA-CMV-THRα-LBD^39, pFA-CMV-RARα-LBD^40, pFA-CMV-PPARα-LBD^41, pFA-CMV-PPARγ-LBD^41, pFA-CMV-PPARδ-LBD^41, pFA-CMV-LXRα-LBD^37, pFA-CMV-FXR-LBD^42 and pFA-CMV-hRXRα-LBD^43.

[2] = molecular target: T1, Nurr1 LBD (Homo sapiens, UniProt P43354); test: Isothermal titration calorimetry (ITC); assay type: binding; conditions: ITC at 25°C
T1 construct: Nurr1 LBD protein (10-30 µM, expressed as described previously^21); made in house
T1 sequence (P43354 360-595 limits assumed): as above
Procedure: Isothermal Titration Calorimetry (ITC). ITC experiments were conducted on an Affinity ITC instrument (TA Instruments, New Castle, DE) at 25°C with a stirring rate of 75 rpm. Nurr1 LBD protein (10-30 µM, expressed as described previously^21) in buffer (20 mM Tris pH 7.5, 100 mM NaCl, 5% glycerol) containing 1-4% DMSO was titrated with the test compounds (60-150 µM in the same buffer containing 1-4% DMSO) in 26 injections (1x 1 µL, 25x 3-4 µL) with an injection interval of 150 s. As control experiments, the test compounds were titrated to the buffer, and the buffer was titrated to the Nurr1 LBD protein under otherwise identical conditions. Results were analyzed using NanoAnalyze software (version 3.11.0, TA Instruments, New Castle, DE) with independent binding models.

[3] = tested on: Nurr1-regulated tyrosine hydroxylase (TH), vesicular amino acid transporter 2 (VMAT2) and superoxide dismutase 2 (SOD2) in astrocytes (T98G); test: Nurr1-regulated gene expression in T98G cells (qPCR); assay type: cell-based, human; conditions: 0.1 µM, 0.3 µM, mRNA vs. DMSO control
[4] = molecular target: T2, Nur77 (Homo sapiens, UniProt P22736); test: Gal4 hybrid reporter gene assay, selectivity profiling (Nur77); assay type: cell-based
T2 construct: expressed in transfected cells; host or cells: HEK293T
T2 sequence (P22736 360-595 limits assumed): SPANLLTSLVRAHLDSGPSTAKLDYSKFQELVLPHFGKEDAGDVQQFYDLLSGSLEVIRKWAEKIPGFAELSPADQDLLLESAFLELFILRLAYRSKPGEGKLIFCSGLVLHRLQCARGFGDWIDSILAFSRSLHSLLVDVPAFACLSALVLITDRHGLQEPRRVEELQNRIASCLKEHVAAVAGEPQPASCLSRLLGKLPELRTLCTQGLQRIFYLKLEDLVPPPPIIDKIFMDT
Procedure: as §1, with “For dose-response curve fitting and calculation of EC50 values, the equation "[Agonist] vs. response -- Variable slope (four parameters)" was used in GraphPad Prism (version 7.00, GraphPad Software, La Jolla, CA, USA). Selectivity profiling was performed with identical procedures using pFA-CMV-Nur77-LBD^14, pFA-CMV-NOR-1-LBD^14, pFA-CMV-THRα-LBD^39, pFA-CMV-RARα-LBD^40, pFA-CMV-PPARα-LBD^41, pFA-CMV-PPARγ-LBD^41, pFA-CMV-PPARδ-LBD^41, pFA-CMV-LXRα-LBD^37, pFA-CMV-FXR-LBD^42 and pFA-CMV-hRXRα-LBD^43.” left out

[5] = Determination of aqueous solubility; assay type: physicochemical; conditions: water, 24 h, 25°C
Procedure: Determination of aqueous solubility. […] The mixture was agitated in a VWR Thermal Shake lite (VWR International GmbH, Darmstadt, Germany) for 24 h at 600 rpm and constant temperature of 25°C. The supersaturated mixtures were subsequently centrifuged at 23.300 rpm for 15 min (25 °C). Part of the supernatant was taken off for quantification by UV absorbance at 312 nm with external calibration. The external calibration samples contained 1% DMSO and the test samples were spiked with DMSO to 1% concentration right before the measurement. Absorbance was measured with a Tecan Spark luminometer (Tecan Deutschland GmbH, Crailsheim, Germany). The solubility test was repeated in three independent experiments, […]

[6] = tested on: THRα, RARα, PPARα, PPARγ, PPARδ, LXRα, FXR, RXRα; test: Selectivity screening on nuclear receptors outside the NR4A family (Gal4 hybrid reporter gene assays); assay type: cell-based
Procedure: as §1, with “For dose-response curve fitting and calculation of EC50 values, the equation "[Agonist] vs. response -- Variable slope (four parameters)" was used in GraphPad Prism (version 7.00, GraphPad Software, La Jolla, CA, USA). Selectivity profiling was performed with identical procedures using pFA-CMV-Nur77-LBD^14, pFA-CMV-NOR-1-LBD^14, pFA-CMV-THRα-LBD^39, pFA-CMV-RARα-LBD^40, pFA-CMV-PPARα-LBD^41, pFA-CMV-PPARγ-LBD^41, pFA-CMV-PPARδ-LBD^41, pFA-CMV-LXRα-LBD^37, pFA-CMV-FXR-LBD^42 and pFA-CMV-hRXRα-LBD^43.” left out

[7] = molecular target: T3, Nurr1 monomer (NBRE) (Homo sapiens, UniProt P43354); test: Full-length Nurr1 reporter gene assay, response element NBRE; assay type: cell-based; conditions: result in words, at 1 µM
T3 construct: The full length human nuclear receptor Nurr1 (pcDNA3.1-hNurr1-NE; Addgene plasmid #102363); NE (suffix in the plasmid name); host or cells: HEK293T
T3 sequence (P43354 whole entry): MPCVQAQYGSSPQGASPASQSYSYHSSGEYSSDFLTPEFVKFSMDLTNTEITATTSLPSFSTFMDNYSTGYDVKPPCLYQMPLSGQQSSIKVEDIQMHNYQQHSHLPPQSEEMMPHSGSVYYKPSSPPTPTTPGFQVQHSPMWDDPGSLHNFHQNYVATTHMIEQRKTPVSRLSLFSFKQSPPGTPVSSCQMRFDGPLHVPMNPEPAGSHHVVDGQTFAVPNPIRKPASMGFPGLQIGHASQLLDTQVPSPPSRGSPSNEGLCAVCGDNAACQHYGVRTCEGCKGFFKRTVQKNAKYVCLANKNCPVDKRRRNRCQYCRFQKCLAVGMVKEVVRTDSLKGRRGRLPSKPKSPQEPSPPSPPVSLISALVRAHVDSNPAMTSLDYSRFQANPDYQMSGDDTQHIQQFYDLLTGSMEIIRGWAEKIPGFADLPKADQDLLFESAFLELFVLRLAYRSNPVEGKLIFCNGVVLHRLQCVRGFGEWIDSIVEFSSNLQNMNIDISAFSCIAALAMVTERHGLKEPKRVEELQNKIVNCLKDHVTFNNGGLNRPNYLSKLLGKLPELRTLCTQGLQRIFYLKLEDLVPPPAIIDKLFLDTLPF
From the text: (§2) Full-length Nurr1 reporter gene assays. Activation of full length human Nurr1 was studied in transiently transfected HEK293T cells using the reporter plasmids pFR-Luc-NBRE^14, pFR-Luc-POMC^14 or pFR-Luc-DR5^14 each containing one copy of the respective human Nurr1 response element NBRE Nl3, NurRE, or DR5. The full length human nuclear receptor Nurr1 (pcDNA3.1-hNurr1-NE; Addgene plasmid #102363) and, for DR5, RXRα (pSG5-hRXR)^44 were overexpressed. pRL-SV40 (Promega) was used for normalization of transfection efficacy and to observe test compound toxicity. […] After 24 h, medium was changed to Opti-MEM without supplements and cells were transiently transfected using Lipofectamine LTX reagent (invitrogen) according to the manufacturer's protocol. Five hours after transfection, cells were incubated with the test compounds in Opti-MEM supplemented with penicillin (100 U/mL), streptomycin (100 µg/mL) and 0.1% DMSO for 16 h before luciferase activity was measured using the Dual-Glo Luciferase Assay System (Promega) according to the manufacturer's protocol on a Tecan Spark luminometer (Tecan Deutschland GmbH). Firefly luminescence was divided by Renilla luminescence and multiplied by 1000 resulting in relative light units (RLU) to normalize for transfection efficiency and cell growth. […]

[8] = molecular target: T4, Nurr1-RXR heterodimer (DR5) (Homo sapiens, UniProt P43354); test: Full-length Nurr1 reporter gene assay, response element DR5 with RXRα; assay type: cell-based
T4 construct: The full length human nuclear receptor Nurr1 (pcDNA3.1-hNurr1-NE; Addgene plasmid #102363); NE (suffix in the plasmid name); host or cells: HEK293T
T4 sequence (P43354 whole entry): as above
T4 sequence (P19793 whole entry partner): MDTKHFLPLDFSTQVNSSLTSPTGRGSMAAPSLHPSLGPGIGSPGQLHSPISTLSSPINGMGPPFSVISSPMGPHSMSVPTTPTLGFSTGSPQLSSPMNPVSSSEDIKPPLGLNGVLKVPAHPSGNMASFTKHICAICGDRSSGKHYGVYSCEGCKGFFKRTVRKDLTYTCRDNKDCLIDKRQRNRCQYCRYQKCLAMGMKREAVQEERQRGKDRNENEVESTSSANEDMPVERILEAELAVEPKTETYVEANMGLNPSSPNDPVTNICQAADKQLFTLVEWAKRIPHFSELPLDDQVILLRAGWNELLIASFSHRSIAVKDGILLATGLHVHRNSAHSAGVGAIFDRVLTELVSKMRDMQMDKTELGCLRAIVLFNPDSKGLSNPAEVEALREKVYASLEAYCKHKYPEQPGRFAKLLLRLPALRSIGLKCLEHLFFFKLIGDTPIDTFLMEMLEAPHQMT
From the text: Full-length Nurr1 reporter gene assays. Activation of full length human Nurr1 was studied in transiently transfected HEK293T cells using the reporter plasmids pFR-Luc-NBRE^14, pFR-Luc-POMC^14 or pFR-Luc-DR5^14 each containing one copy of the respective human Nurr1 response element NBRE Nl3, NurRE, or DR5. The full length human nuclear receptor Nurr1 (pcDNA3.1-hNurr1-NE; Addgene plasmid #102363) and, for DR5, RXRα (pSG5-hRXR)^44 were overexpressed. pRL-SV40 (Promega) was used for normalization of transfection efficacy and to observe test compound toxicity. […] After 24 h, medium was changed to Opti-MEM without supplements and cells were transiently transfected using Lipofectamine LTX reagent (invitrogen) according to the manufacturer's protocol. Five hours after transfection, cells were incubated with the test compounds in Opti-MEM supplemented with penicillin (100 U/mL), streptomycin (100 µg/mL) and 0.1% DMSO for 16 h before luciferase activity was measured using the Dual-Glo Luciferase Assay System (Promega) according to the manufacturer's protocol on a Tecan Spark luminometer (Tecan Deutschland GmbH). Firefly luminescence was divided by Renilla luminescence and multiplied by 1000 resulting in relative light units (RLU) to normalize for transfection efficiency and cell growth. Fold activation was obtained by dividing the mean RLU of test compound by the mean RLU of the untreated control. All samples were tested in at least three biologically independent experiments in duplicates. For dose-response curve fitting and calculation of EC50 values, the equation "[Agonist] vs. response -- Variable slope (four parameters)" was used in GraphPad Prism (version 7.00, GraphPad Software).

[9] = molecular target: T5, Nurr1 homodimer (NurRE) (Homo sapiens, UniProt P43354); test: Full-length Nurr1 reporter gene assay, response element NurRE; assay type: cell-based
T5 construct: The full length human nuclear receptor Nurr1 (pcDNA3.1-hNurr1-NE; Addgene plasmid #102363); host or cells: HEK293T
T5 sequence (P43354 whole entry): as the sequence (P43354 whole entry) above
From the text: as §2

| SMILES | max. activation [1] | EC50 [1] | also measured |
| --- | --- | --- | --- |
| Cc1cccc(-c2nc3c(Cl)cccn3c2N)c1 [Compound 21] | < 1.2-fold act. | – | – |
| Nc1c(-c2ccc(C(F)(F)F)cc2)nc2c(Cl)cccn12 [Compound 22] | < 1.2-fold act. | – | – |
| Nc1c(-c2cccc(C(F)(F)F)c2)nc2c(Cl)cccn12 [Compound 23] | < 1.2-fold act. | – | – |
| Nc1c(-c2ccc(Cl)c(Cl)c2)nc2c(Cl)cccn12 [Compound 24, 8-Chloro-2-(3,4-dichlorophenyl)imidazo[1,2-a]pyridine-3-amine] | 1.8 fold and 1.8±0.1 fold | 400 nM | Kd [2]: 700 nM; increase in potency over 8 [1]: 7 fold |
| Cc1ccc(-c2nc3c(Cl)cccn3c2N)cc1C [Compound 25] | 1.6±0.1 fold | 14000 ± 2000 nM | – |
| Cc1nc2c(Cl)cccn2c1NC(=O)c1ccc(-c2ccc(Cl)cc2)o1 [Compound 26] | 1.8±0.1 fold | 1600 ± 500 nM | Kd [2]: 700 nM |
| Cc1nc2c(Cl)cccn2c1NC(=O)c1ccc(-c2ccccc2)o1 [Compound 27] | 2.1±0.1 fold | 4000 ± 1000 nM | – |
| Cc1nc2c(Cl)cccn2c1NC(=O)c1ccc(-c2ccccc2)s1 [Compound 28] | 2.1±0.1 fold | 3200 ± 400 nM | – |
| Cc1nc2c(Cl)cccn2c1NC(=O)c1ccc(-c2ccccc2)cc1 [Compound 30] | – | – | EC50(Nurr1) (max. activation) ([1]; result in words, at 10 µM): inactive (10 µM) |
| Cc1nc2c(Cl)cccn2c1NC(=O)c1ccc(-c2ccc(C(F)(F)F)cc2)o1 [Compound 31] | – | 1100 ± 300 nM | – |
| Cc1ccc(-c2ccc(C(=O)Nc3c(C)nc4c(Cl)cccn34)o2)cc1 [Compound 32] | 2.0±0.2 fold | 130 ± 20 nM | – |
| Cc1nc2c(Cl)cccn2c1NC(=O)c1ccc(-c2ccc(OC(F)(F)F)cc2)o1 [Compound 33] | – | 800 ± 200 nM | – |
| COc1ccc(-c2ccc(C(=O)Nc3c(C)nc4c(Cl)cccn34)o2)cc1 [Compound 34] | 1.7±0.1 fold | 160 ± 60 nM | – |
| CNc1ccc(-c2ccc(C(=O)Nc3c(C)nc4c(Cl)cccn34)o2)cc1 [Compound 35] | – | 300 ± 20 nM | – |
| Cc1nc2c(Cl)cccn2c1NC(=O)c1ccc(-c2ccc(N(C)C)cc2)o1 [Compound 36, N-(8-Chloro-2-methylimidazo[1,2-a]pyridin-3-yl)-5-(4-(dimethylamino)phenyl)furan-2-carboxamide] | – | 90 ± 5 nM | expression of superoxide dismutase 2 (SOD2) [3]: induced expression; expression of tyrosine hydroxylase (TH) [3]: induced expression; expression of vesicular amino acid transporter 2 (VMAT2) [3]: induced expression; Kd [2]: 170 nM; EC50 [4]: 330 ± 40 nM; aq. solubility [5]: 6.8 µg/mL; selectivity ([6]; Nurr1 vs. nuclear receptors outside the NR4A family): > 30 fold; activity outside the NR4A family ([6]; at 3 µM, n=3): no off-target activity; EC50(NBRE) [7]: inactive; also recorded: no activation (1 µM); enhancement of potency by bexarotene (factor) ([8]; DR5, 0.1 µM BEX): > 5; EC50 ([8]; with 0.1 µM bexarotene (BEX)): 33 nM; EC50 ([8]; without bexarotene, read-out: EC50(DR5)): 165 nM; EC50 [9]: 94 ± 3 nM |
